Experimental data taken from patent US20240101548A1, “HYDROXAMATE COMPOUND, PREPARATION METHOD THEREFOR AND APPLICATION THEREOF” (SHENZHEN CHIPSCREEN BIOSCIENCES CO., LTD., priority 2020, published 2024).
Like-named read-outs stand apart in the source and are kept apart here.

How the values were obtained:
Type in all cases: cell-based, human
[1] = tested on: EPO-induced JAK2 signal pathway; assay: EPO-induced proliferation of UT-7 cells (JAK2 signal); conditions: UT-7 cell proliferation, EPO 10 ng/mL, 72 hours, read-out: Inhibition activity IC50 on EPO-induced JAK2 signal pathway
Procedure, shortened: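 UT-7 cells (15000/well) stimulated with 10 ng/mL human recombinant EPO plus compound at final 0, 100, 1000 or 10000 nM, 72 h at 37° C., 5% CO2. Proliferation by alamarBlue fluorescence (Ex530/Em590); inhibition normalised to no-cytokine/no-compound (0) and EPO-only (100) wells, […] derived from dose-inhibition.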

[2] = tested on: IL-2-induced JAK1/JAK3 signal pathway; assay: IL-2-induced proliferation of KHYG-1 cells (JAK1/JAK3 signal); conditions: KHYG-1 cell proliferation, IL-2 10 ng/mL, 72 hours, read-out: Inhibition activity IC50 on IL-2-induced JAK1/JAK3 signal pathway
Procedure, shortened: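 KHYG-1 NK lymphoma cells were cultured with IL-2 and test compound at various doses for 72 h at 37 °C and 5% CO2, and proliferation was read with alamarBlue fluorescence. Inhibition was normalized to wells without compound or cytokine (0%) and IL-2 wells without compound (100%), and C50 was derived from the dose-inhibition data.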

[3] = tested on: IL-10-induced JAK1/TYK2 signal pathway; assay: IL-10-induced JAK1/TYK2 signal pathway STAT3-Luc reporter gene assay in U2OS cells; conditions: U2OS cells, STAT3-Luc reporter, IL-10 10 ng/mL, read-out: Half inhibition dose (IC50) on IL-10-induced JAK1/TYK2 signal pathway
Procedure, shortened: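 U2OS cells co-transfected with IL-10R1-EGFP and STAT3-luciferase reporter plasmids; after 24 h, compound added (0–300 nM) for 6 h before 10 ng/mL human IL-10, then 24 h culture. Luciferase signal normalised to GFP for transfection efficiency; IC50 from inhibition rates.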

Row | SMILES | IC50 ([3]; Homo sapiens, U2OS) [nM] | IC50 [3] [nM] | IC50 ([1]; Homo sapiens, UT7) [µM] | IC50 ([2]; Homo sapiens) [µM] | IC50 [1] [µM] | IC50 [2] [µM] | IC50 ([3]; Homo sapiens) [nM]
1 | CCONC(=O)c1cnc(Nc2cc(C)nc(C)n2)cc1Nc1ccc(F)cc1N(C)S(=O)(=O)C1CC1 [Example 183] | 0.796 |  | > 10 | > 10 |  |  | 
2 | CCONC(=O)c1cnc(Nc2cc(C)nc(C)n2)cc1Nc1ccc(C2CC2)cc1N(C)S(=O)(=O)CC [Example 185] | 0.821 |  | > 10 | > 10 |  |  | 
3 | CCONC(=O)c1cnc(Nc2cc(C)nc(C)n2)cc1Nc1ccc(Cl)cc1N(C)S(=O)(=O)CC [Example 187, 4-((4-chloro-2-(N-methylethylsulfonamido)phenyl)amino)-6-((2,6-dimethylpyrimidin-4-yl)amino)-N-ethoxynicotinamide] | 0.906 |  | > 10 | > 10 |  |  | 
4 | CCONC(=O)c1cnc(Nc2ccnc(OC)n2)cc1Nc1cc(F)c(C2CC2)cc1N(C)S(C)(=O)=O [Example 188, 4-((4-cyclopropyl-5-fluoro-2-(N-methylmethanesulfonamido)phenyl)amino)-N-ethoxy-6-((2-methoxypyrimidin-4-yl)amino)nicotinamide] | 1.27 |  | > 10 | > 10 |  |  | 
5 | CCONC(=O)c1cnc(Nc2cc(C)nc(C)n2)cc1Nc1ccc(C2CC2)cc1N(C)S(=O)(=O)C1CC1 [Example 189] | 0.825 |  | > 10 | > 10 |  |  | 
6 | CCONC(=O)c1cnc(Nc2ccncn2)cc1Nc1ccc(C2CC2)cc1N(C)S(=O)(=O)C1CC1 [Example 190, 4-((4-cyclopropyl-2-(N-methylcyclopropylsulfonamido)phenyl)amino)-N-ethoxy-6-(pyrimidin-4-ylamino)nicotinamide] | 2.73 |  | > 10 | > 10 |  |  | 
7 | CCONC(=O)c1cnc(Nc2cc(C)nc(C)n2)cc1Nc1cc(F)c(C)cc1N(C)S(C)(=O)=O [Example 191, 6-((2,6-dimethylpyrimidin-4-yl)amino)-N-ethoxy-4-((5-fluoro-4-methyl-2-(N-methylmethanesulfonamido)phenyl)amino)nicotinamide] | 0.653 |  | > 10 | > 10 |  |  | 
8 | CCONC(=O)c1cnc(Nc2cc(C)nc(C)n2)cc1Nc1ccc(C)c(F)c1N(C)S(C)(=O)=O [Example 197] | 0.731 |  | > 10 | > 10 |  |  | 
9 | CCONC(=O)c1cnc(Nc2cc(C)nc(C)n2)cc1Nc1ccc(C)cc1N(C)S(=O)(=O)CC [Example 203, 6-((2,6-dimethylpyrimidin-4-yl)amino)-N-ethoxy-4-((4-methyl-2-(N-methylethylsulfonamido)phenyl)amino)nicotinamide] | 0.383 |  | > 10 | > 10 |  |  | 
10 | CCONC(=O)c1cnc(Nc2cc(C)nc(C)n2)cc1Nc1ccc(-c2ccnn2C)cc1OC [Example 207] | 1.08 |  | > 10 | > 10 |  |  | 
11 | CCONC(=O)c1cnc(Nc2cc(C)nc(C)n2)cc1Nc1cccc(-c2ncc(Cl)cn2)c1OC [Example 218, 4-((3-(5-chloropyrimidin-2-yl)-2-methoxyphenyl)amino)-6-((2,6-dimethylpyrimidin-4-yl)amino)-N-ethoxy nicotinamide] |  |  | > 10 | > 10 |  |  | 0.171

Now from value to molecule, other results behind:

Row | IC50 ([3]; Homo sapiens, U2OS) [nM] | IC50 [3] [nM] | SMILES | IC50 ([1]; Homo sapiens, UT7) [µM] | IC50 ([2]; Homo sapiens) [µM] | IC50 [1] [µM] | IC50 [2] [µM] | IC50 ([3]; Homo sapiens) [nM]
12 | 1.78 |  | CCONC(=O)c1cnc(NC(=O)C2CC2)cc1Nc1cccc(-c2ncc(F)cn2)c1OC [Example 209, 6-(cyclopropylcarboxamido)-N-ethoxy-4-((3-(5-fluoropyrimidin-2-yl)-2-methoxyphenyl)amino)nicotinamide] | > 10 | > 10 |  |  | 
13 | 0.958 |  | CCONC(=O)c1cnc(NC(=O)C2CC2)cc1Nc1cc(F)cc(-c2ncc(F)cn2)c1OC [Example 210, 6-(cyclopropylcarboxamido)-N-ethoxy-4-((5-fluoro-3-(5-fluoropyrimidin-2-yl)-2-methoxyphenyl)amino)nicotinamide] | > 10 | > 10 |  |  | 
14 |  | 1.05 | CCONC(=O)c1cnc(Nc2cccc(C)n2)cc1Nc1ccc(C2CC2)cc1N(C)S(C)(=O)=O [Example 217, 4-((4-cyclopropyl-2-(N-methylmethanesulfonamido)phenyl)amino)-N-ethoxy-6-((6-methylpyridin-2-yl)amino)nicotinamide] |  |  | > 10 | > 10 | 
15 | 1.32 |  | CCONC(=O)c1cnc(Nc2cccc(C(F)(F)F)n2)cc1Nc1ccc(C2CC2)cc1N(C)S(C)(=O)=O [Example 220, 4-((4-cyclopropyl-2-(N-methylmethanesulfonamido)phenyl)amino)-N-ethoxy-6-((6-(trifluoromethyl)pyridin-2-yl)amino)nicotinamide] | > 10 | > 10 |  |  | 
16 | 1.09 |  | CCONC(=O)c1cnc(Nc2cccc(C)n2)cc1Nc1ccc(-c2ccnn2C)cc1OC [Example 222, N-ethoxy-4-((2-methoxy-4-(1-methyl-1H-pyrazol-5-yl)phenyl)amino)-6-((6-methylpyridin-2-yl)amino)nicotinamide] | > 10 | > 10 |  |  | 
17 | 0.172 |  | CCONC(=O)c1cnc(Nc2ccc(F)nc2C)cc1Nc1ccc(C2CC2)cc1N(C)S(C)(=O)=O [Example 223, 4-((4-cyclopropyl-2-(N-methylmethanesulfonamido)phenyl)amino)-N-ethoxy-6-((6-fluoro-2-methylpyridin-3-yl)amino)nicotinamide] | > 10 | > 10 |  |  | 
18 |  | 0.177 | CCONC(=O)c1cnc(Nc2cccc(C)n2)cc1Nc1ccc(C2CC2)cc1N(C)S(C)(=O)=O [Example 224, 4-((4-cyclopropyl-2-(N-methylmethanesulfonamido)phenyl)amino)-N-ethoxy-6-((6-methylpyridin-2-yl)amino)nicotinamide] |  |  | > 10 | > 10 | 
19 | 0.538 |  | CCONC(=O)c1cnc(NC(=O)C2CC2)cc1Nc1cc(F)cc(-c2ncc(C)cn2)c1OC [Example 226, 6-(cyclopropylcarboxamido)-N-ethoxy-4-((5-fluoro-2-(methoxy)-3-(5-methylpyrimidin-2-yl)phenyl)amino)nicotinamide] | > 10 | > 10 |  |  | 
20 | 0.85 |  | CCONC(=O)c1cnc(Nc2ccncn2)cc1Nc1cc(F)c(C(C)C)cc1N(C)S(C)(=O)=O [Example 230, N-ethoxy-4-((5-fluoro-4-isopropyl-2-(N-methylmethanesulfonamido)phenyl)amino)-6-(pyrimidin-4-ylamino)nicotinamide] | > 10 | > 10 |  |  | 
21 | 0.368 |  | CCONC(=O)c1cnc(Nc2ncc(F)cc2F)cc1Nc1cc(F)cc(-c2ncc(F)cn2)c1OC [Example 234, 6-((3,5-difluoropyridin-2-yl)amino)-N-ethoxy-4-((5-fluoro-3-(5-fluoropyrimidin-2-yl)-2-methoxyphenyl)amino)nicotinamide] | > 10 | > 10 |  |  | 
22 | 0.722 |  | CCONC(=O)c1cnc(Nc2cnc(F)c(C)c2)cc1Nc1ccc(C2CC2)cc1N(C)S(C)(=O)=O [Example 235, 4-((4-cyclopropyl-2-(N-methylmethanesulfonamido)phenyl)amino)-N-ethoxy-6-((6-fluoro-5-methylpyridin-3-yl)amino)nicotinamide] | > 10 | > 10 |  |  | 
